Experimental data taken from US20250345440A1, “METAL-ORGANIC FRAMEWORK MATERIALS AND USES OF THE METAL-ORGANIC FRAMEWORK MATERIALS” (MOF Science, LLC, priority 2024, published 2025).

Assay: Second study: NAD in tissues, oral (pegylated)NAD-Mg-GA vs injectable NAD
Type: in vivo
Settings: group 2 (IP injectable NAD) vs group 1 (oral (pegylated)NAD-Mg-GA), healthy rats

NC(=O)c1ccc[n+]([C@@H]2O[C@H](COP(=O)([O-])OP(=O)(O)OC[C@H]3O[C@@H](n4cnc5c(N)ncnc54)[C@H](O)[C@@H]3O)[C@@H](O)[C@H]2O)c1 [injectable NAD, Nicotinamide Adenine Dinucleotide]
More NAD levels in the heart compared to group 1: 11%
